Laboratory results reported in patent US20050228016A1, “TETRAHYDROQUINOLINES FOR MODULATING THE EXPRESSION OF EXOGENOUS GENES VIA AN ECDYSONE RECEPTOR COMPLEX” (priority 2002, published 2005).

Experiments:
Gal4DBD/AaEcR (DEF) = biological target: T1, Gal4DBD/AaEcR (DEF) (Aedes aegypti, UniProt P49880); experiment: cell-based; type: cell-based; conditions: for Fold Induction Average, AA_3T3V1 Assay 33 μM: 3T3 cells, 48 h, average of two wells
T1 construct: The wildtype D, E, and F domains from mosquito Aedes aegypti EcR; expressed in transfected cells; host or cells: 3T3 cells
Experimental: 3T3 cells were trypsinized and plated at 2.5×10^3 cells/well on a 96-well plate. After incubation for 24 h at 37° C. under 5% CO2, cells were transfected with the Gal4DBD/AaEcR (DEF) gene expression cassette and the reporter plasmid, pFRLuc, containing a 5× GAL4 response element and the firefly luciferase gene in serum free media using Superfect (Qiagen). After transfection for 4 h at 37° C., the cells were treated with ligand in serum media. […] Single dose testing was performed at 33 μM.

[1] = biological target: T2, Bombyx mori EcR (VP16-BmEcR, CVBE) (Bombyx mori, UniProt P49881); experiment: Z3 assay (HEK-293 clone Z3 with CVBE and 6x EcRE LacZ, β-galactosidase reporter); type: cell-based; conditions: average of two wells; for Fold Induction Average, Z3V1 Assay 33 μM: 48 h
T2 construct: expressed in transfected cells
T2 sequence (P49881 86-606): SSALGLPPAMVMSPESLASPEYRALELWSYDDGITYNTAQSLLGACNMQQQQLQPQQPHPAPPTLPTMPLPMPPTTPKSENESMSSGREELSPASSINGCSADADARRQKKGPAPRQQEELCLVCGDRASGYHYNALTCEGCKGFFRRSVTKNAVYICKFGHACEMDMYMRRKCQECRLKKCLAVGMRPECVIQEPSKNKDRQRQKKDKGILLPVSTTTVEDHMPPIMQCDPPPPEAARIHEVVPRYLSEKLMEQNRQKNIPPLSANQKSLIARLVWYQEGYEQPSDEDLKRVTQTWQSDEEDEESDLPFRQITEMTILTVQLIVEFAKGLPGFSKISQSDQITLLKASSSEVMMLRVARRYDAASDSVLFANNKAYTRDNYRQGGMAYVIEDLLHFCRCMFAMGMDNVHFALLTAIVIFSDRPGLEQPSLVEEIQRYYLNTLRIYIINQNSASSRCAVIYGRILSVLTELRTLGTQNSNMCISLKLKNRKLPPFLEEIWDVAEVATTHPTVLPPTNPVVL
Text: Dr. F. Gage provided a population of stably transformed cells containing CVBE and 6× EcRE as described in (Suhr et. al. 1998). Human 293 kidney cells, also referred to as HEK-293 cells, were sequentially infected with retroviral vectors encoding first the switch construct CVBE, and subsequently the reporter construct 6× EcRE Lac Z. The switch construct contained the coding sequence for amino acids 26-546 from Bombyx nori EcR (BE) (Iatrou) inserted in frame and downstream of the VP16 transactivation domain (VBE). A synthetic ATG start codon was placed under the control of cytomegalovirus (CVBE) immediate early promoter and flanked by long terminal repeats (LTR). The reporter-construct contained six copies of the ecdysone response element (EcRE) binding site placed upstream of LacZ and flanked on both sides with LTR sequences (6× EcRE).
Dilution cloning was used to isolate individual clones. Clones were selected using 450 μg/ml G418 and 100 ng/ml puromycin. Individual clones were evaluated based on their response in the presence and absence of test ligands.
Human 293 kidney cells stably transformed with CVBE and 6× EcRE lack were maintained in Minimum Essential Medium (Mediates, 10-010-CV) containing 10%.FBS (Life Technologies, 26140-087),[…] G418 (Mediates, 30-234-CR), and […] (Sigma, P-7255), at 37° C. in an atmosphere containing 5% CO2 and were subculture when they reached 75% confluence.
Z3 cells were seeded into 96-well tissue culture plates at a concentration of 2.5×10^3 cells per well and incubated at 37° C. in 5% CO2 for twenty-four hours. Stock solutions of ligands were prepared in DMSO. Ligand stock solutions were diluted 100.fold in media and 50 μL of this diluted ligand solution (33 μM) was added to cells.
Reporter gene expression was evaluated 48 hours after treatment of cells, β-galactosidase activity was measured using Gal Screen™ bioluminescent reporter gene assay system from Tropix (GSY1000).
Flanking both constructs are long terminal repeats, G418 and puromycin are selectable markers, CMV is the cytomegalovirus promoter, VBE is coding sequence for amino acids 26-546 from Bombyx mori EcR inserted downstream of the VP16 transactivation domain, 6× EcRE is six copies of the ecdysone response element, lacZ encodes for the reporter enzyme β-galactosidase.

T1 sequence (P28704 286-520 A311G/G315S/G445S/I449V): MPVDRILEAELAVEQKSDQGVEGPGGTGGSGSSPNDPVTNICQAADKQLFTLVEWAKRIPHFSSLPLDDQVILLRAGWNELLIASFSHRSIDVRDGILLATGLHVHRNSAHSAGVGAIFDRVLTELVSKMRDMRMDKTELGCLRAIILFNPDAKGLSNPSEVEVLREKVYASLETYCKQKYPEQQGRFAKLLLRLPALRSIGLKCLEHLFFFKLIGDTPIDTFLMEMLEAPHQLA
T1 sequence (P49880 405-776): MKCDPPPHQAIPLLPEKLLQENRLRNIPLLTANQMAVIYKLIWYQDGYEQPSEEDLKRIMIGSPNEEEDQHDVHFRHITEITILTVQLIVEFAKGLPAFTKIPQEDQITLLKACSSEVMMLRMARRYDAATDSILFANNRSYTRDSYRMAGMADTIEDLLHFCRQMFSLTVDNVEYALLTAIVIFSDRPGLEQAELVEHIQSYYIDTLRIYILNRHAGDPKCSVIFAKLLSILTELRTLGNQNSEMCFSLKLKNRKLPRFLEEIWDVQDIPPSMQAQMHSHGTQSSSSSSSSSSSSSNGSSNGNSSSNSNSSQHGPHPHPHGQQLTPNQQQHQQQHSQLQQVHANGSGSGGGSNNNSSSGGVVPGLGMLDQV

| SMILES | Fold Induction Average, AA_3T3V1 Assay 33 μM (Gal4DBD/AaEcR (DEF)) [fold] | Fold Induction Average, Z3V1 Assay 33 μM [1] [fold] | fold induction at 33 µM (Gal4DBD/AaEcR (DEF); NIH3T3, read-out: Fold Induction Average, AA_3T3V1 Assay 33 μM) | fold induction at 33 µM ([1]; HEK293, 48 h, read-out: Fold Induction Average, Z3V1 Assay 33 μM) |
| --- | --- | --- | --- | --- |
| C[C@H]1C[C@H](Nc2ccccc2)c2ccccc2N1C(=O)c1ccc(C(F)(F)F)cc1 (relative stereo) [Compound I-71] | 291 | 2 |  |  |
| Cc1ccc(N[C@H]2C[C@H](C)N(C(=O)c3ccccc3)c3ccc(C)cc32)cc1 (relative stereo) [Compound I-72] | 114 | 1 |  |  |
| Cc1ccc(N[C@H]2C[C@H](C)N(C(=O)c3cccc(F)c3)c3ccc(C)cc32)cc1 (relative stereo) [Compound I-73] | 207 | 1 |  |  |
| Cc1ccc(N[C@H]2C[C@H](C)N(C(=O)c3ccccc3C(F)(F)F)c3ccc(C)cc32)cc1 (relative stereo) [Compound I-74] | 22 | 1 |  |  |
| Cc1ccc(N[C@H]2C[C@H](C)N(C(=O)c3cccc(C(F)(F)F)c3)c3ccc(C)cc32)cc1 (relative stereo) [Compound I-75] | 13 | 2 |  |  |
| Cc1ccc(N[C@H]2C[C@H](C)N(C(=O)c3ccc(C(F)(F)F)cc3)c3ccc(C)cc32)cc1 (relative stereo) [Compound I-76] | 741 | 1 |  |  |
| C[C@H]1C[C@H](Nc2ccc(F)cc2)c2cc(F)ccc2N1C(=O)c1cccc(F)c1 (relative stereo) [Compound I-77] | 272 | 153 |  |  |
| C[C@H]1C[C@H](Nc2ccc(F)cc2)c2cc(F)ccc2N1C(=O)c1ccccc1C(F)(F)F (relative stereo) [Compound I-78] | 33 | 3 |  |  |
| C[C@H]1C[C@H](Nc2ccc(F)cc2)c2cc(F)ccc2N1C(=O)c1cccc(C(F)(F)F)c1 (relative stereo) [Compound I-79] | 595 | 137 |  |  |
| C[C@H]1C[C@H](Nc2ccc(F)cc2)c2cc(F)ccc2N1C(=O)c1ccc(C(F)(F)F)cc1 (relative stereo) [Compound I-80] | 914 | 37 |  |  |
| COc1cccc(C(=O)N2c3ccccc3[C@@H](Nc3ccccc3)C[C@@H]2C)c1 (relative stereo) [Compound I-81] | 9 | 1 |  |  |
| Cc1ccc(C(=O)N2c3ccccc3[C@@H](Nc3ccccc3)C[C@@H]2C)cc1 (relative stereo) [Compound I-82] | 79 | 1 |  |  |
| COc1ccc(C(=O)N2c3ccccc3[C@@H](Nc3ccccc3)C[C@@H]2C)cc1 (relative stereo) [Compound I-83] | 345 | 8 |  |  |
| COC(=O)c1ccc(C(=O)N2c3ccccc3[C@@H](Nc3ccccc3)C[C@@H]2C)cc1 (relative stereo) [Compound I-84] | 508 | 3 |  |  |
| Cc1ccc(N[C@H]2C[C@H](C)N(C(=O)c3cccc(C)c3)c3ccc(C)cc32)cc1 (relative stereo) [Compound I-85] | 3 | 1 |  |  |
| Cc1ccc(N[C@H]2C[C@H](C)N(C(=O)c3ccc(C)cc3)c3ccc(C)cc32)cc1 (relative stereo) [Compound I-87] | 250 | 1 |  |  |
| COc1ccc(C(=O)N2c3ccc(C)cc3[C@@H](Nc3ccc(C)cc3)C[C@@H]2C)cc1 (relative stereo) [Compound I-88] | 213 | 1 |  |  |
| COC(=O)c1ccc(C(=O)N2c3ccc(C)cc3[C@@H](Nc3ccc(C)cc3)C[C@@H]2C)cc1 (relative stereo) [Compound I-89] | 30 | 1 |  |  |
| Cc1cccc(C(=O)N2c3ccc(F)cc3[C@@H](Nc3ccc(F)cc3)C[C@@H]2C)c1 (relative stereo) [Compound I-90] | 433 | 33 |  |  |
| COc1cccc(C(=O)N2c3ccc(F)cc3[C@@H](Nc3ccc(F)cc3)C[C@@H]2C)c1 (relative stereo) [Compound I-91] | 542 | 107 |  |  |
| Cc1ccc(C(=O)N2c3ccc(F)cc3[C@@H](Nc3ccc(F)cc3)C[C@@H]2C)cc1 (relative stereo) [Compound I-92] | 229 | 100 |  |  |
| COc1ccc(C(=O)N2c3ccc(F)cc3[C@@H](Nc3ccc(F)cc3)C[C@@H]2C)cc1 (relative stereo) [Compound I-93] | 378 | 87 |  |  |
| C[C@H]1C[C@H](Nc2ccccc2)c2ccccc2N1C(=O)c1ccc(C(C)(C)C)cc1 (relative stereo) [Compound I-134] | 39 | 1 |  |  |
| COc1ccc(C(=O)N2c3ccc(C)cc3[C@@H](Nc3ccc(C)cc3)C[C@H]2C)cc1 (stereo in doubt) [Compound I-98, cis-2,6-dimethyl-1-(4-methoxybenzoyl)-4-(4-methylphenylamino)-1,2,3,4-tetrahydroquinoline] |  |  | 1 | 1 |
| CCc1ccc(C(=O)N2c3ccc(F)cc3C(Nc3ccc(F)cc3)CC2C)cc1 (centres unmarked) [Compound I-36] | 113 | 33 |  |  |
| COC(=O)c1ccc(C(=O)N2c3ccc(F)cc3C(Nc3ccc(F)cc3)CC2C)cc1 (centres unmarked) [Compound I-37] | 37 | 1 |  |  |
| CC1CC(Nc2ccc(F)cc2)c2cc(F)ccc2N1C(=O)c1ccc2c(c1)OCO2 (centres unmarked) [Compound I-38] | 76 | 10 |  |  |
| COc1cccc(C(=O)N2c3ccc(C)cc3C(Nc3ccc(C)cc3)CC2C)c1C (centres unmarked) [Compound I-54] | 35 | 7 |  |  |
